# ChEMBL document CHEMBL3751851, “Antileukemic activity of lignans and phenylpropanoids of Cinnamomum parthenoxylon” (Bioorg Med Chem Lett, 2016)
# pIC50: −log10 of the molar value. Active and inactive are the calls of the source. The calls are words filed in the database; no cut-off is given here.
# How the values were obtained:
# [1] = Cytotoxicity against human U937 cells after 48 hrs by CCK8 assay; type: functional, cell-based; details: U-937, 48 h
# [2] = Cytotoxicity against human HL60 cells after 48 hrs by CCK8 assay; type: functional, cell-based; details: HL-60, 48 h
# Huh-7 = assay: Induction of apoptosis in human HuH7 cells assessed as increase of casapase-3 activity after 1 hr by DEVD-pNA cleavage assay relative to control; type: functional
# HL-60 = assay: Induction of apoptotic morphological changes in human HL60 cells at 50 uM after 48 hrs by Hoechst 33342 staining; type: functional, cell-based
# U-937 = assay: Induction of apoptotic morphological changes in human U937 cells at 50 uM after 48 hrs by Hoechst 33342 staining; type: functional, cell-based
SMILES,pIC50 [1],pIC50 [2],fold change (FC) (Huh-7),Activity (HL-60),Activity (U-937)
OCC(O)Cc1ccc2c(c1)OCO2 (stereo unspecified) [SAFROLGLYCOL],4.29,4.22,–,–,–
C=CCc1ccc2c(c1)OCO2 [SAFROLE],4.28,4.27,–,–,–
O=C1OC[C@H](Cc2ccc3c(c2)OCO3)[C@H]1Cc1ccc2c(c1)OCO2 [HINOKININ],4.98,4.50,2,Active,Active
c1cc2c(cc1C[C@H]1COC[C@@H]1Cc1ccc3c(c1)OCO3)OCO2,4.40,4.29,–,–,Active
OC1OC[C@H](Cc2ccc3c(c2)OCO3)[C@H]1Cc1ccc2c(c1)OCO2 (stereo partly specified),4.80,4.42,–,Active,Active
